Test results from patent US20230085307A1, “PYRIDAZINONE COMPOUND AND HERBICIDE” (NISSAN CHEMICAL CORPORATION, priority 2019, published 2023).

How the values were obtained:
southern crabgrass [1] = test: Test Example 5: herbicidal effect by foliage application, plastic box (Table 20, symbol F); type: in vivo, southern crabgrass (Digitaria ciliaris); settings: foliage application, AAH 320 g/ha, three weeks after application
Procedure, shortened: (§1)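 Plants sown in sterilized diluvial soil and grown 14 days in a greenhouse at 25° C to 30° C, then sprayed on the foliage with the compound's emulsion diluted in water to a predetermined herbicide amount. Injury to weeds and crops scored three weeks after application on a visual rating scale.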

green foxtail [2] = test: Test Example 5: herbicidal effect by foliage application, plastic box (Table 20, symbol G); type: in vivo, green foxtail (Setaria viridis); settings: foliage application, AAH 320 g/ha, three weeks after application
Procedure, shortened: as §1

windgrass [3] = test: Test Example 4: herbicidal effect by soil treatment (Table 19, symbol L); type: in vivo, windgrass (Apera spica-venti); settings: AAH 320 g/ha
Procedure, shortened: (§2)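 Three weeks of greenhouse growth at 25° C. to 30° C. followed a uniform surface spray of water-diluted emulsion at a predetermined herbicide amount. Seeds had been sown beforehand under about 1.5 cm of sterilized diluvial soil. Grading followed criteria set out in an earlier test.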

green foxtail [4] = test: Test Example 4: herbicidal effect by soil treatment (Table 19, symbol G); type: in vivo, green foxtail (Setaria viridis); settings: AAH 320 g/ha
Procedure, shortened: as §2

windgrass [5] = test: Test Example 5: herbicidal effect by foliage application, plastic box (Table 20, symbol L); type: in vivo, windgrass (Apera spica-venti); settings: foliage application, AAH 320 g/ha, three weeks after application
Procedure, shortened: as §1

lambsquarters [6] = test: Test Example 5: herbicidal effect by foliage application, plastic box (Table 20, symbol O); type: in vivo, lambsquarters (Chenopodium album); settings: foliage application, AAH 320 g/ha, three weeks after application
Procedure, shortened: as §1

rice flat sedge = test: Test Example 3: herbicidal effect by foliage application, Wagner pot (Table 18, symbol E); type: in vivo, rice flat sedge (Cyperus iria); settings: 320 g/ha
Procedure, shortened: (§3)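 Plants were sown in alluvial soil held under 0.1–0.5 cm standing water and grown 14 days in a greenhouse at 25–30 °C. An emulsifiable formulation, water-diluted to the set dose, was then sprayed onto the foliage, and effects were scored three weeks later using previously defined criteria.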

lambsquarters [7] = test: Test Example 4: herbicidal effect by soil treatment (Table 19, symbol O); type: in vivo, lambsquarters (Chenopodium album); settings: AAH 320 g/ha
Procedure, shortened: as §2

redroot pigweed [8] = test: Test Example 5: herbicidal effect by foliage application, plastic box (Table 20, symbol N); type: in vivo, redroot pigweed (Amaranthus retroflexus); settings: foliage application, AAH 320 g/ha, three weeks after application
Procedure, shortened: as §1

wild oat [9] = test: Test Example 4: herbicidal effect by soil treatment (Table 19, symbol I); type: in vivo, wild oat (Avena fatua); settings: AAH 320 g/ha
Procedure, shortened: as §2

velvetleaf [10] = test: Test Example 4: herbicidal effect by soil treatment (Table 19, symbol M); type: in vivo, velvetleaf (Abutilon theophrasti); settings: AAH 320 g/ha
Procedure, shortened: as §2

persian speedwell [11] = test: Test Example 5: herbicidal effect by foliage application, plastic box (Table 20, symbol R); type: in vivo, Persian speedwell (Veronica persica); settings: foliage application, AAH 320 g/ha, three weeks after application
Procedure, shortened: as §1

blackgrass [12] = test: Test Example 5: herbicidal effect by foliage application, plastic box (Table 20, symbol J); type: in vivo, blackgrass (Alopecurus myosuroides); settings: foliage application, AAH 320 g/ha, three weeks after application
Procedure, shortened: as §1

Italian ryegrass [13] = test: Test Example 4: herbicidal effect by soil treatment (Table 19, symbol K); type: in vivo, Italian ryegrass (Lolium multiflorum); settings: AAH 320 g/ha
Procedure, shortened: as §2

barnyard grass [14] = test: Test Example 5: herbicidal effect by foliage application, plastic box (Table 20, symbol H); type: in vivo, barnyard grass (Echinochloa crus-galli); settings: foliage application, AAH 320 g/ha, three weeks after application
Procedure, shortened: as §1

Chinese sprangletop = test: Test Example 3: herbicidal effect by foliage application, Wagner pot (Table 18, symbol D); type: in vivo, chinese sprangletop (Leptochloa chinensis); settings: 320 g/ha
Procedure, shortened: as §3

redroot pigweed [15] = test: Test Example 4: herbicidal effect by soil treatment (Table 19, symbol N); type: in vivo, redroot pigweed (Amaranthus retroflexus); settings: AAH 320 g/ha
Procedure, shortened: as §2

blackgrass [16] = test: Test Example 4: herbicidal effect by soil treatment (Table 19, symbol J); type: in vivo, blackgrass (Alopecurus myosuroides); settings: AAH 320 g/ha
Procedure, shortened: as §2

wild oat [17] = test: Test Example 5: herbicidal effect by foliage application, plastic box (Table 20, symbol I); type: in vivo, wild oat (Avena fatua); settings: foliage application, AAH 320 g/ha, three weeks after application
Procedure, shortened: as §1

chickweed [18] = test: Test Example 4: herbicidal effect by soil treatment (Table 19, symbol P); type: in vivo, common chickweed (Stellaria media); settings: AAH 320 g/ha
Procedure, shortened: as §2

Italian ryegrass [19] = test: Test Example 5: herbicidal effect by foliage application, plastic box (Table 20, symbol K); type: in vivo, Italian ryegrass (Lolium multiflorum); settings: foliage application, AAH 320 g/ha, three weeks after application
Procedure, shortened: as §1

false cleavers = test: Test Example 4: herbicidal effect by soil treatment (Table 19, symbol Q); type: in vivo, false cleavers (Galium spurium); settings: AAH 320 g/ha
Procedure, shortened: as §2

chickweed [20] = test: Test Example 5: herbicidal effect by foliage application, plastic box (Table 20, symbol P); type: in vivo, common chickweed (Stellaria media); settings: foliage application, AAH 320 g/ha, three weeks after application
Procedure, shortened: as §1

velvetleaf [21] = test: Test Example 5: herbicidal effect by foliage application, plastic box (Table 20, symbol M); type: in vivo, velvetleaf (Abutilon theophrasti); settings: foliage application, AAH 320 g/ha, three weeks after application
Procedure, shortened: as §1

barnyard grass [22] = test: Test Example 4: herbicidal effect by soil treatment (Table 19, symbol H); type: in vivo, barnyard grass (Echinochloa crus-galli); settings: AAH 320 g/ha
Procedure, shortened: as §2

persian speedwell [23] = test: Test Example 4: herbicidal effect by soil treatment (Table 19, symbol R); type: in vivo, Persian speedwell (Veronica persica); settings: AAH 320 g/ha
Procedure, shortened: as §2

barnyard grass [24] = test: Test Example 3: herbicidal effect by foliage application, Wagner pot (Table 18, symbol H); type: in vivo, barnyard grass (Echinochloa crus-galli); settings: 320 g/ha
Procedure, shortened: as §3

southern crabgrass [25] = test: Test Example 4: herbicidal effect by soil treatment (Table 19, symbol F); type: in vivo, southern crabgrass (Digitaria ciliaris); settings: AAH 320 g/ha
Procedure, shortened: as §2

## CCCC(=O)Oc1c(OC)nn(C)c(=O)c1-c1c(-c2ccc([N+](=O)[O-])cc2)sc2ccccc12 [1-169]
Southern crabgrass [1]
  F: southern crabgrass, herbicidal effect: 0 (Herbicidal rate of 5% or less (almost no effect))
Green foxtail [2]
  G: green foxtail, herbicidal effect: 0 (Herbicidal rate of 5% or less (almost no effect))
Windgrass [3]
  L: windgrass, herbicidal effect rating: 0 (Herbicidal rate of 5% or less (almost no effect))
Green foxtail [4]
  G: green foxtail, herbicidal effect rating: 0 (Herbicidal rate of 5% or less (almost no effect))
Windgrass [5]
  L: windgrass, herbicidal effect: 0 (Herbicidal rate of 5% or less (almost no effect))
Lambsquarters [6]
  O: lambsquarters, herbicidal effect: 4 (Herbicidal rate of 70% or more and less than 90%)
Rice flat sedge
  herbicidal effect on E (rice flat sedge), rating 0-5: 2 (Herbicidal rate of 20% or more and less than 40%)
Lambsquarters [7]
  O: lambsquarters, herbicidal effect rating: 0 (Herbicidal rate of 5% or less (almost no effect))
Redroot pigweed [8]
  N: redroot pigweed, herbicidal effect: 4 (Herbicidal rate of 70% or more and less than 90%)
Wild oat [9]
  I: wild oat, herbicidal effect rating: 0 (Herbicidal rate of 5% or less (almost no effect))
Velvetleaf [10]
  M: velvetleaf, herbicidal effect rating: 0 (Herbicidal rate of 5% or less (almost no effect))
Persian speedwell [11]
  R: persian speedwell, herbicidal effect: 4 (Herbicidal rate of 70% or more and less than 90%)
Blackgrass [12]
  J: blackgrass, herbicidal effect: 0 (Herbicidal rate of 5% or less (almost no effect))
Italian ryegrass [13]
  K: Italian ryegrass, herbicidal effect rating: 0 (Herbicidal rate of 5% or less (almost no effect))
Barnyard grass [14]
  H: barnyard grass, herbicidal effect: 0 (Herbicidal rate of 5% or less (almost no effect))
Chinese sprangletop
  herbicidal effect on D (Chinese sprangletop), rating 0-5: 0 (Herbicidal rate of 5% or less (almost no effect))
Redroot pigweed [15]
  N: redroot pigweed, herbicidal effect rating: 0 (Herbicidal rate of 5% or less (almost no effect))
Blackgrass [16]
  J: blackgrass, herbicidal effect rating: 0 (Herbicidal rate of 5% or less (almost no effect))
Wild oat [17]
  I: wild oat, herbicidal effect: 0 (Herbicidal rate of 5% or less (almost no effect))
Chickweed [18]
  P: chickweed, herbicidal effect rating: 1 (Herbicidal rate of 5% or more and less than 20%)
Italian ryegrass [19]
  K: Italian ryegrass, herbicidal effect: 0 (Herbicidal rate of 5% or less (almost no effect))
False cleavers
  Q: false cleavers, herbicidal effect rating: 0 (Herbicidal rate of 5% or less (almost no effect))
Chickweed [20]
  P: chickweed, herbicidal effect: 4 (Herbicidal rate of 70% or more and less than 90%)
Velvetleaf [21]
  M: velvetleaf, herbicidal effect: 0 (Herbicidal rate of 5% or less (almost no effect))
Barnyard grass [22]
  H: barnyard grass, herbicidal effect rating: 0 (Herbicidal rate of 5% or less (almost no effect))
Persian speedwell [23]
  R: persian speedwell, herbicidal effect rating: 3 (Herbicidal rate of 40% or more and less than 70%)
Barnyard grass [24]
  herbicidal effect on H (barnyard grass), rating 0-5: 1 (Herbicidal rate of 5% or more and less than 20%)
Southern crabgrass [25]
  F: southern crabgrass, herbicidal effect rating: 0 (Herbicidal rate of 5% or less (almost no effect))
